# Source: patent US12371428B2 (Exelixis, Inc., priority 2019, dated 2025)
# Assays:
# Assay type in all cases: cell-based
# [1] = target: Mer (phospho-Mer, MERTK-transfected 293A cells) (Homo sapiens (Human), UniProt Q12866); assay: Mer autophosphorylation ELISA in transient transfected 293A cells (Example H); settings: cellular activity; Mer autophosphorylation ELISA in transient transfected 293A cells
# Method in brief: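 MERTK-transfected 293A; 8-pt dose, 1 h, serum-free, 0.3% DMSO. Cold lysis with orthovanadate and protease/phosphatase inhibitors. Phospho-Mer by DuoSet IC ELISA vs phospho-Mer standard. IC50: 4-PL fit; DMSO = 100%, reference inhibitor = 0%.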
# [2] = target: KDR (phospho-KDR, VEGF165-stimulated HUVEC cells) (Homo sapiens (Human), UniProt P35968); assay: KDR autophosphorylation ELISA in HUVEC cells (Example G); settings: cellular activity; KDR autophosphorylation ELISA in HUVEC cells
# Sequence of KDR (phospho-KDR, VEGF165-stimulated HUVEC cells) (P35968 20-1356): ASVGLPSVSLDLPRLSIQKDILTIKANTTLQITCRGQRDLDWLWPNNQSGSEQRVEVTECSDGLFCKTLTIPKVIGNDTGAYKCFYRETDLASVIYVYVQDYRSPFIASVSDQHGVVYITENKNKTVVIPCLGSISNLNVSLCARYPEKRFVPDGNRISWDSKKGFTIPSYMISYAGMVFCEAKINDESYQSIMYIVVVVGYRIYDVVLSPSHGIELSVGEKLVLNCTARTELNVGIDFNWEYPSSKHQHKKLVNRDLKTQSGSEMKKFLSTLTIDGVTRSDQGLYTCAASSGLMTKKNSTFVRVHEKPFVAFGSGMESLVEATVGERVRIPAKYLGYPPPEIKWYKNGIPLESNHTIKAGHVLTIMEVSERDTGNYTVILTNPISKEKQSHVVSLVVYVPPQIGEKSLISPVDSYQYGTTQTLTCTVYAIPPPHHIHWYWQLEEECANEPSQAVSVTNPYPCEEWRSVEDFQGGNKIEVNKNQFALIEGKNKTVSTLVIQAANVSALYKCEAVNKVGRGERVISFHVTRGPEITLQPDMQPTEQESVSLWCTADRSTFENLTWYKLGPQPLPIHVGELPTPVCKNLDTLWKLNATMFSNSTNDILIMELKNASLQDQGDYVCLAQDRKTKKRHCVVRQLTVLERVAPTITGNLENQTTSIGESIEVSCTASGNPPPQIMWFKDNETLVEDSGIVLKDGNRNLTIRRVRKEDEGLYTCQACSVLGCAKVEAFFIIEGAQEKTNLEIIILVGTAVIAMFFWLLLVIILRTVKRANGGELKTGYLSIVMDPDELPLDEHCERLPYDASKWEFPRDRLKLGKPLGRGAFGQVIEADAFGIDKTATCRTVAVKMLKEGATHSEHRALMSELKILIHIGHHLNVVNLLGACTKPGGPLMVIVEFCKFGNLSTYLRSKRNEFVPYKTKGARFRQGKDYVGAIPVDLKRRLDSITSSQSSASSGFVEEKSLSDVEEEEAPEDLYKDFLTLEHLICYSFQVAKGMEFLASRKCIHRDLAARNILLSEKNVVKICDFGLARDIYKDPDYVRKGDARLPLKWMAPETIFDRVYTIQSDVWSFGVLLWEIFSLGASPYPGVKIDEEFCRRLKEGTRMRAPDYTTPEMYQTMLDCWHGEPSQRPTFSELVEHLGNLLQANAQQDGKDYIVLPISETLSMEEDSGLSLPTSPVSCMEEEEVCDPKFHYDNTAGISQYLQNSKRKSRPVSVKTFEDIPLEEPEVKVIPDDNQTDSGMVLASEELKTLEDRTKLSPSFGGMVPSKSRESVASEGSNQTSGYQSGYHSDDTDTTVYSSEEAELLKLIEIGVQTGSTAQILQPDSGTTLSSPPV
# Method in brief: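 Read-out: phospho-KDR in cell lysates by DuoSet IC ELISA, normalised between VEGF-stimulated DMSO wells (100%) and unstimulated wells (0%). Human endothelial cells were starved overnight in serum-free medium, exposed to compound for 1 h, and then pulsed with 100 ng/mL VEGF165 for 5 min.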
# [3] = target: Met (phospho-Met, HGF-stimulated PC-3 prostate cancer cells) (Homo sapiens (Human), UniProt P08581); assay: Met autophosphorylation ELISA in PC-3 cells (Example F); settings: cellular activity; Met autophosphorylation ELISA in PC-3 cells; read-out: c-Met IC50
# Sequence of Met (phospho-Met, HGF-stimulated PC-3 prostate cancer cells) (P08581 25-1390): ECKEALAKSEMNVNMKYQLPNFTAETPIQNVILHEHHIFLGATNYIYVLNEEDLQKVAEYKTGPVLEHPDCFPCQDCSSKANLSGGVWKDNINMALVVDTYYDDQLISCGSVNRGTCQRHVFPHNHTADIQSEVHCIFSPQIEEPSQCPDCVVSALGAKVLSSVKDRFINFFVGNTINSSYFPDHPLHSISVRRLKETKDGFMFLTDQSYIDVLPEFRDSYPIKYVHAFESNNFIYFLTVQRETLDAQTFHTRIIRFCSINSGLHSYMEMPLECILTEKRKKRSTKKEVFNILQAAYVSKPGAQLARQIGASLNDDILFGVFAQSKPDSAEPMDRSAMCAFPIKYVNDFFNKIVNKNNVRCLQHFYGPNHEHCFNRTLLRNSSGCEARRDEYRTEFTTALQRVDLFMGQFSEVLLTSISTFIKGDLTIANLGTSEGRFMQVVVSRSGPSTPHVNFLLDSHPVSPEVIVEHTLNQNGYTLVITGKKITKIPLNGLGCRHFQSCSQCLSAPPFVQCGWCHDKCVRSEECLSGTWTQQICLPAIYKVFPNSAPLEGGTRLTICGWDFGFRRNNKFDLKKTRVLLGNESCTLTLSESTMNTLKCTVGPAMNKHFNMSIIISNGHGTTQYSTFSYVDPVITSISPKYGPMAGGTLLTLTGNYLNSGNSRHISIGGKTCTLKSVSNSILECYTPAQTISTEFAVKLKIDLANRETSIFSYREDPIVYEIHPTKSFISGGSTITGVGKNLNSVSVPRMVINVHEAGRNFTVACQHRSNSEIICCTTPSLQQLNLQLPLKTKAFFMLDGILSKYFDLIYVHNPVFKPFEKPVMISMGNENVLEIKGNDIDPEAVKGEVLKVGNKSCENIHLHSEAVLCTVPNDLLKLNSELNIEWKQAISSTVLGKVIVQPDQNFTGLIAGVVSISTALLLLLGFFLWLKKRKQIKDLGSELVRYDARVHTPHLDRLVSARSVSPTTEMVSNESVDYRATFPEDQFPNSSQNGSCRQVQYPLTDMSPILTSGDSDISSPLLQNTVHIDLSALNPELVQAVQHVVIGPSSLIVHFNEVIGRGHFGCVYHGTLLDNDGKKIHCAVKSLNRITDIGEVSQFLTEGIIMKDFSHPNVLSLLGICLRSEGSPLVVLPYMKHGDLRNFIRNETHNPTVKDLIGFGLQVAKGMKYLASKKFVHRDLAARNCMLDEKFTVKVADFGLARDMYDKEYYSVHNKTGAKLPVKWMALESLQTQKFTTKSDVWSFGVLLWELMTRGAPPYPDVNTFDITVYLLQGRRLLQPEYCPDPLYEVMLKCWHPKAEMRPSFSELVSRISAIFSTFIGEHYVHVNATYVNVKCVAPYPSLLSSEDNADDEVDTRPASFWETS
# Method in brief: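 Sandwich ELISA for phospho-Met (panTyr) in PC-3 lysates. Cells starved 3 h serum-free, compound 1 h (8-pt curve, 0.3% DMSO), HGF 100 ng/mL 10 min. 100% = HGF + DMSO; 0% = HGF + reference inhibitor. IC50 by 4-parameter fit.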
# [4] = target: AXL (phospho-AXL, Gas6-stimulated A-172 glioblastoma cells) (Homo sapiens (Human), UniProt P30530); assay: AXL autophosphorylation ELISA in A-172 cells (Example E); settings: cellular activity; AXL autophosphorylation ELISA in A-172 cells; read-out: Axl IC50
# Sequence of AXL (phospho-AXL, Gas6-stimulated A-172 glioblastoma cells) (P30530 26-894): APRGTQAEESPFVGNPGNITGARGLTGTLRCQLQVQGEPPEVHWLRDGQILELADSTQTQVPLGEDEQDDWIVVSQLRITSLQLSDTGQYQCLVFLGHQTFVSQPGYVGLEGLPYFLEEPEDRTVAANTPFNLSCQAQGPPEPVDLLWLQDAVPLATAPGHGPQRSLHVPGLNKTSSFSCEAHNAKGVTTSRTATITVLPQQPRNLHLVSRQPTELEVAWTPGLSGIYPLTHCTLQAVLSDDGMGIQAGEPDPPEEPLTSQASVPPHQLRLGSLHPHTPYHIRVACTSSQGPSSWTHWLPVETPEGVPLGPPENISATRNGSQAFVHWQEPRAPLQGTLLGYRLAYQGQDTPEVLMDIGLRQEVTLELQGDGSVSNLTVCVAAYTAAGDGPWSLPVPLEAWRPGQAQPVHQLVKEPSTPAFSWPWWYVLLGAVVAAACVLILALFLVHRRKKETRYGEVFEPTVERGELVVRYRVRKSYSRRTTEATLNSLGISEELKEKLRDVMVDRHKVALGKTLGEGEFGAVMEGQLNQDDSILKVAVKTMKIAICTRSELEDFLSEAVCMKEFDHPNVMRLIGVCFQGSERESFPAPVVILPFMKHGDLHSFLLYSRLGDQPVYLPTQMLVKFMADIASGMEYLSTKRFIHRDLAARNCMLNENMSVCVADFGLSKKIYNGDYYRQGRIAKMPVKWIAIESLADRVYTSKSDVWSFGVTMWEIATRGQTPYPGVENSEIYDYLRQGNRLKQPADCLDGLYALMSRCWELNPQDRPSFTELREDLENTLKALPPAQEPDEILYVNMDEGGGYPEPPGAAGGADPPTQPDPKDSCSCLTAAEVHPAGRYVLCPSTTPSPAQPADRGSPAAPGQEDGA
# Method in brief: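 Phospho-AXL was measured by ELISA in lysates of Gas6-stimulated A-172 cells, starved 24 h in serum-free medium and exposed 1 h to an 8-point compound dilution at 0.3% DMSO.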
# Sequence of Mer (phospho-Mer, MERTK-transfected 293A cells) (Q12866 21-999): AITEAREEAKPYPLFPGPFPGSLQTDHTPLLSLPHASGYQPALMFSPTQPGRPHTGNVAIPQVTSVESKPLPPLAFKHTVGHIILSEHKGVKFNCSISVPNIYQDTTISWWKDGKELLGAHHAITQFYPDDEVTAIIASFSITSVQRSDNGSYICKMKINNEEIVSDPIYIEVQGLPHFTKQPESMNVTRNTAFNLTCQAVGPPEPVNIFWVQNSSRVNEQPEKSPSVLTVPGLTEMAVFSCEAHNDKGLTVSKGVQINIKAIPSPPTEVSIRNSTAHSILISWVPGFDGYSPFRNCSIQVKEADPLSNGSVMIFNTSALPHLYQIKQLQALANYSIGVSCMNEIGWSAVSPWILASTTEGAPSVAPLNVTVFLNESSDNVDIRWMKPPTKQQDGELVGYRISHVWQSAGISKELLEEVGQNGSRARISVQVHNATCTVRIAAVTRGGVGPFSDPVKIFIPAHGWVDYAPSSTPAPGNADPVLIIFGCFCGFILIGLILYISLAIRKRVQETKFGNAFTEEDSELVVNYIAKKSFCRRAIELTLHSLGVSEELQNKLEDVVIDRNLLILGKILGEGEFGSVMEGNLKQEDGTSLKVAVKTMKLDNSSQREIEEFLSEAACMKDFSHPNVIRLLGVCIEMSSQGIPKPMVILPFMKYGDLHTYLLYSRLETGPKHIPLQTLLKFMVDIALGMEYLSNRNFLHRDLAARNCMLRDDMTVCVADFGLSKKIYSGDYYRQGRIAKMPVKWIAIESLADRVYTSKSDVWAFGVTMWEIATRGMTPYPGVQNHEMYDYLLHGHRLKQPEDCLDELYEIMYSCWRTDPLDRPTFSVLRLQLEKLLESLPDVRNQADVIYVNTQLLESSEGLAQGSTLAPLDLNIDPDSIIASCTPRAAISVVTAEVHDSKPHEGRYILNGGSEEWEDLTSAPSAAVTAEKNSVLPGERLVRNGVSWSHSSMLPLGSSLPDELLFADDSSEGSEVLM
IC50 [1] [µM],IC50 [2] [µM],IC50 [3] [µM],IC50 [4] [µM],SMILES
< 0.1,0.1 to 0.3,< 0.1,< 0.1,"COc1cc2nccc(Oc3cc(F)c(NC(=O)c4c(C)n(C)c(C)c(-c5ccc(F)cc5C)c4=O)cc3F)c2nc1OC [Compound 772, N-[4-[(6,7-dimethoxy-1,5-naphthyridin-4-yl)oxy]-2,5-difluorophenyl]-5-(4-fluoro-2-methylphenyl)-1,2,6-trimethyl-4-oxopyridine-3-carboxamide]"
< 0.1,< 0.1,< 0.1,< 0.1,"CCn1nc(C(=O)Nc2ccc(Oc3ccnc4cc(OC)c(OC)cc34)c(F)c2)c(=O)c(-c2ccc(F)cc2)c1C [Compound 573, N-[4-(6,7-Dimethoxyquinolin-4-yl)oxy-3-fluorophenyl]-1-ethyl-5-(4-fluorophenyl)-6-methyl-4-oxopyridazine-3-carboxamide]"
< 0.1,< 0.1,< 0.1,< 0.1,"COc1cc2nccc(Oc3ccc(NC(=O)c4nnc(C)c(-c5ccc(F)cc5C)c4OC)cc3F)c2nc1OC [Compound 489, N-[4-[(6,7-dimethoxy-1,5-naphthyridin-4-yl)oxy]-3-fluorophenyl]-5-(4-fluoro-2-methylphenyl)-4-methoxy-6-methylpyridazine-3-carboxamide]"
< 0.1,< 0.1,< 0.1,< 0.1,"COCCOc1cc2nccc(Oc3ccc(NC(=O)c4c(C)ccn(-c5ccc(F)cc5)c4=O)cc3)c2nc1OC [Compound 704, 1-(4-fluorophenyl)-N-[4-[[6-methoxy-7-(2-methoxyethoxy)-1,5-naphthyridin-4-yl]oxy]phenyl]-4-methyl-2-oxopyridine-3-carboxamide]"
< 0.1,< 0.1,< 0.1,< 0.1,"COCCOc1cnc2c(Oc3ccc(NC(=O)c4c(C)nc(C)c(-c5ccc(F)cc5C)c4O)cc3F)ccnc2c1 [Compound 683, N-[3-fluoro-4-[[7-(2-methoxyethoxy)-1,5-naphthyridin-4-yl]oxy]phenyl]-5-(4-fluoro-2-methylphenyl)-4-hydroxy-2,6-dimethylpyridine-3-carboxamide]"
< 0.1,> 0.3,0.1 to 0.3,> 0.3,"COc1cnc2c(Oc3ccc(NC(=O)c4c(C)nc(C)c(-c5ccc(S(C)(=O)=O)cc5)c4O)cc3F)ccnc2c1 [Compound 694, N-[3-fluoro-4-[(7-methoxy-1,5-naphthyridin-4-yl)oxy]phenyl]-4-hydroxy-2,6-dimethyl-5-(4-methylsulfonylphenyl)pyridine-3-carboxamide]"
< 0.1,< 0.1,< 0.1,< 0.1,"COCCOc1cc2nccc(Oc3ccc(NC(=O)c4c(C)ccn(-c5ccc(F)cc5)c4=O)cc3F)c2nc1OC [Compound 703, N-[3-fluoro-4-[[6-methoxy-7-(2-methoxyethoxy)-1,5-naphthyridin-4-yl]oxy]phenyl]-1-(4-fluorophenyl)-4-methyl-2-oxopyridine-3-carboxamide]"
< 0.1,> 0.3,0.1 to 0.3,< 0.1,"COc1cc2nccc(Oc3ccc(NC(=O)c4c5c(cn(-c6ccc(F)cc6)c4=O)C(=O)CCC5)cc3)c2nc1OC [Compound 360, N-[4-[(6,7-dimethoxy-1,5-naphthyridin-4-yl)oxy]phenyl]-2-(4-fluorophenyl)-3,8-dioxo-6,7-dihydro-5H-isoquinoline-4-carboxamide]"
< 0.1,0.1 to 0.3,< 0.1,< 0.1,"CCOc1c(C(=O)Nc2ccc(Oc3ccnc4cc(OC)c(OC)nc34)c(F)c2)cnc(C)c1-c1ccc(F)cc1 [Compound 333, N-[4-[(6,7-dimethoxy-1,5-naphthyridin-4-yl)oxy]-3-fluorophenyl]-4-ethoxy-5-(4-fluorophenyl)-6-methylpyridine-3-carboxamide]"
